Assay results: patent US7595401B2, “Therapeutic compounds and their use in cancer” (Myriad Pharmaceuticals, Inc., priority 2006, dated 2009)

Each molecule was assayed on purified human Hsp90 (assay: Binding Assay: fluorescence polarization with BODIPY-labeled geldanamycin). Conditions: 5 μM compound, BODIPY-GM 10 nM, Hsp90 30 nM.
Protocol: Compound binding to purified Hsp90 was monitored using BODIPY-labeled geldanamycin (BODIPY-GM) in a fluorescence polarization assay adapted from Kim et al. (Journal of Biomolecular Screening 2004, 9(5):375-381). Compound dilutions (in 100% DMSO) were added to black-bottom 96-well plates (Greiner; 2% DMSO final), and equal volumes of BODIPY-GM (10 nM final) and purified human Hsp90 (Stressgen, SPP-770; 30 nM final) in assay buffer (20 mM HEPES-KOH pH 7.3, 50 mM KCl, 5 mM MgCl2, 20 mM Na2MoO4, 0.01% NP-40, 0.1 mg/mL bovine gamma globulin [Invitrogen, P2045], 2 mM DTT) were added sequentially to yield a final volume of 50 microliters. Plates were incubated overnight at room temperature. Parallel and perpendicular fluorescence measurements were read (LJL BioSystems Analyst AD plate reader) with excitation/emission wavelengths of 485/530 nm. Background fluorescence (buffer only) was subtracted, and fluorescence polarization (FP) values, expressed in mP units, were calculated from parallel and perpendicular fluorescence readings as follows: FP=(parallel−perpendicular)/(parallel+perpendicular)*1000
Percent inhibition was calculated by normalizing the FP values to those obtained in parallel reactions containing DMSO and subtracting these normalized values from 100%. Intrinsic compound fluorescence was independently monitored, and FP data points confounded by compound fluorescence were excluded from the analysis.

| Compound | % Inhibition at 5 μM Compound Concentration |
| --- | --- |
| COc1ccc([N+](=O)[O-])cc1Sc1nc2c(N)ncn(CCc3ccccc3Cl)c-2n1 [Example 319, 3-[2-(2-Chlorophenyl)ethyl]-8-[(2-methoxy-5-nitrophenyl)thio]-3H-purin-6-amine] | 27.0% |
| Nc1ncn(CC(c2ccccc2)C2CCCCC2)c2nc(Sc3cc4c(cc3Br)OCO4)nc1-2 (centres unmarked) [Example 227, 8-[(6-Bromo-1,3-benzodioxol-5-yl)thio]-3-(2-cyclohexyl-2-phenylethyl)-3H-purin-6-amine] | 0% |
| COc1cc(CCn2cnc(N)c3nc(Sc4cc5c(cc4Br)OCO5)nc2-3)cc(OC)c1 [Example 196, 8-(6-Bromo-benzo[1,3]dioxol-5-ylsulfanyl)-3-[2-(3,5-dimethoxy-phenyl)-ethyl]-3H-purin-6-ylamine] | 10% |
| COc1ccc(OC)c(Sc2nc3c(N)ncn(CCc4ccc(S(=O)(=O)O)cc4)c-3n2)c1 [Example 176, 4-{2-[6-amino-8-(2,5-dimethoxy-phenylsulfanyl)-purin-3-yl]-ethyl}-benzenesulfonic acid] | 6% |
| COc1ccc(OC)c(Sc2nc3c(N)ncn(CCc4ccc(-c5ccccc5)cc4)c-3n2)c1 [Example 182, 3-(2-biphenyl-4-yl-ethyl)-8-(2,5-dimethoxy-phenylsulfanyl)-3H-purin-6-ylamine] | >10% |
| N#Cc1cc2c(cc1Sc1nc3c(N)ncn(CCc4ccccc4Cl)c-3n1)OCO2 [Example 327, 6-({6-Amino-3-[2-(2-chlorophenyl)ethyl]-3H-purin-8-yl}thio)-1,3-benzodioxole-5-carbonitrile] | 33.0% |
| Nc1ncn(CCc2ccccc2)c2nc(Sc3ccc4c(c3)OC(F)(F)O4)nc1-2 [Example 293, 8-[(2,2-Difluoro-1,3-benzodioxol-5-yl)thio]-3-(2-phenylethyl)-3H-purin-6-amine] | 0.0% |
| COc1ccc(OC)c(Sc2nc3c(N)ncnc3n2CCc2ccc(N)cc2)c1 [Example 216, 9-[2-(4-Amino-phenyl)-ethyl]-8-(2,5-dimethoxy-phenylsulfanyl)-9H-purin-6-ylamine] | 78% |
| Cc1cc(=O)oc2cc(Sc3nc4c(N)ncn(CCC5CCN(C=O)CC5)c-4n3)ccc12 [Example 533, 4-(2-{6-Amino-8-[(4-methyl-2-oxo-2 H-chromen-7-yl)thio]-3 H-purin-3-yl}ethyl)piperidine-1-carbaldehyde] | 0.00% |
| Nc1ncn(CCC2CCNCC2)c2nc(Sc3cc4c(cc3Br)OCO4)nc1-2 [Example 468, 8-[(6-Bromo-1,3-benzodioxol-5-yl)thio]-3-(2-piperidin-4-ylethyl)-3 H-purin-6-amine] | 9% |
| COc1ccc(OC)c(Sc2nc3c(N)ncn(CCc4ccccc4C)c-3n2)c1 [Example 70, 8-(2,5-dimethoxy-phenylsulfanyl)-3-(2-o-tolyl-ethyl)-3H-purin-6-ylamine] | 7% |
| Nc1ncn(CCc2cccc3ccccc23)c2nc(Sc3cc4c(cc3Br)OCO4)nc1-2 [Example 158, 8-(6-bromo-benzo[1,3]dioxol-5-ylsulfanyl)-3-(2-naphthalen-1-yl-ethyl)-3H-purin-6-ylamine] | 0% |

Same assay, conditions: BODIPY-GM 10 nM, Hsp90 30 nM

| Compound | IC50 |
| --- | --- |
| COc1ccc(OC)c(Sc2nc3c(N)ncnc3n2CCc2cc(C(F)(F)F)cc(C(F)(F)F)c2)c1 [Example 219, 9-[2-(3,5-Bistrifluoromethyl-phenyl)-ethyl]-8-(2,5-dimethoxy-phenylsulfanyl)-9H-purin-6-ylamine] | > 8 µM |
| CC1=NNC(=O)C1CCn1c(Sc2cc3c(cc2Br)OCO3)nc2c(N)ncnc21 (centres unmarked) [Example 406, 4-(2-{6-Amino-8-[(6-bromo-1,3-benzodioxol-5-yl)thio]-9H-purin-9-yl}ethyl)-5-methyl-2,4-dihydro-3H-pyrazol-3-one] | > 25 µM |
| COc1cc(Sc2nc3c(N)ncnc3n2CCC2CCN(C(C)=O)CC2)c(OC)cc1Cl [Example 563, 9-[2-(1-Acetylpiperidin-4-yl)ethyl]-8-[(4-cloro-2,5-dimethoxyphenyl)thio]-9 H-purin-6-amine] | > 5 µM |
| CCOc1ccc(OCC)c(Sc2nc3c(N)ncnc3n2CCc2ccccc2Cl)c1 [Example 191, 9-[2-(2-Chloro-phenyl)-ethyl]-8-(2,5-diethoxy-phenylsulfanyl)-9H-purin-6-ylamine] | > 8 µM |
| COc1cc(Sc2nc3c(N)ncnc3n2CCC2CCN(C=O)CC2)ncn1 [Example 544, 4-(2-{6-Amino-8-[(6-methoxypyrimidin-4-yl)thio]-9 H-purin-9-yl}ethyl)piperidine-1-carbaldehyde] | 1.4 µM |
| COc1cc(Sc2nc3c(N)ncn(CCc4ccc(Cl)cc4)c-3n2)cc(OC)c1OC [Example 32, 3-[2-(4-chloro-phenyl)-ethyl]-8-(3,4,5-trimethoxy-phenylsulfanyl)-3H-purin-6-ylamine] | > 10 µM |
| Cn1nnnc1N1CCC(CCn2c(Sc3cc4c(cc3Br)OCO4)nc3c(N)ncnc32)CC1 [Example 609, 8-[(6-Bromo-1,3-benzodioxol-5-yl)thio]-9-{2-[1-(1-methyl-1 H-tetrazol-5-yl)piperidin-4-yl]ethyl}-9 H-purin-6-amine] | 0.045 µM |
| Nc1ncnc2c1nc(Sc1cc(Cl)c(Cl)cc1Cl)n2CCc1ccccc1 [Example 259, 9-(2-Phenylethyl)-8-[(2,4,5-trichlorophenyl)thio]-9H-purin-6-amine] | 12 µM |
| COCC(=O)N1CCC(CCn2c(Sc3cc4c(cc3Br)OCO4)nc3c(N)ncnc32)CC1 [Example 722, 8-[(6-Bromo-1,3-benzodioxol-5-yl)thio]-9-{2-[1-(methoxyacetyl)piperidin-4-yl]ethyl}-9H-purin-6-amine] | 0.13 µM |
| COc1ccc(OC)c(Sc2nc3c(N)ncnc3n2CCc2ccc(N)cc2)c1 [Example 216, 9-[2-(4-Amino-phenyl)-ethyl]-8-(2,5-dimethoxy-phenylsulfanyl)-9H-purin-6-ylamine] | > 8 µM |
| Nc1ncnc2c1nc(Sc1ccc3c(c1)OC(F)(F)O3)n2CCc1ccccc1Cl [Example 294, 9-[2-(2-Chlorophenyl)ethyl]-8-[(2,2-difluoro-1,3-benzodioxol-5-yl)thio]-9H-purin-6-amine] | > 25 µM |
| COc1ccc(OC)c(Sc2nc3c(N)ncnc3n2CCc2cccs2)c1 [Example 199] | 0.11 µM |
| Nc1ncnc2c1nc(Sc1cc3c(cc1Br)OCO3)n2CC[C@@H]1CCNC1 [Example 484, 8-[(6-Bromo-1,3-benzodioxol-5-yl)thio]-9-{2-[(3S)-pyrrolidin-3-yl]ethyl}-9 H-purin-6-amine] | 0.6 µM |
| Nc1ncnc2c1nc(Sc1ccc3c(c1)OC(F)(F)O3)n2CCc1ccccc1 [Example 292, 8-[(2,2-Difluoro-1,3-benzodioxol-5-yl)thio]-9-(2-phenylethyl)-9H-purin-6-amine] | > 25 µM |
| COc1ccc(OC)c(Sc2nc3c(N)ncnc3n2CCC2=CC3CC(C2)C3(C)C)c1 (centres unmarked) [Example 405, 8-[(2,5-Dimethoxyphenyl)thio]-9-[2-(6,6-dimethylbicyclo[3.1.1]hept-2-en-3-yl)ethyl]-9H-purin-6-amine] | > 8 µM |
| CC(C)(C)OC(=O)NCC(=O)N1CCC(CCn2c(Sc3cc4c(cc3Br)OCO4)nc3c(N)ncnc32)CC1 [Example 705, tert-Butyl{2-[4-(2-{6-amino-8-[(6-bromo-1,3-benzodioxol-5-yl)thio]-9H-purin-9-yl}ethyl)piperidin-1-yl]-2-oxoethyl}carbamate] | 0.08 µM |
| COc1ccc(OC)c(Sc2nc3c(N)ncn(CCc4ccccc4Cl)c-3n2)c1 [Example 26, 3-[2-(2-chloro-phenyl)-ethyl]-8-(2,5-dimethoxy-phenylsulfanyl)-3H-purin-6-ylamine] | > 10 µM |
| CC(C)(C)OC(=O)N[C@H]1CC[C@@H](CCn2cnc(N)c3nc(Sc4cc5c(cc4Br)OCO5)nc2-3)CC1 [Example 399, tert-Butyl [cis-4-(2-{6-amino-8-[(6-bromo-1,3-benzodioxol-5-yl)thio]-3H-purin-3-yl}ethyl)cyclohexyl]carbamate] | 0.95 µM |
| Nc1ncnc2c1nc(Sc1cccc(OC(F)F)c1)n2CCc1ccccc1Cl [Example 258, 9-[2-(2-Chlorophenyl)ethyl]-8-{[3-(difluoromethoxy)phenyl]thio}-9H-purin-6-amine] | > 25 µM |
| Nc1ncnc2c1nc(Sc1cc3c(cc1Br)OCO3)n2CCC1CCN(C(=O)C2(C(F)(F)F)CC2)CC1 [Example 526, 8-[(6-Bromo-1,3-benzodioxol-5-yl)thio]-9-[2-(1-{[1-(trifluoromethyl)cyclopropyl]carbonyl}piperidin-4-yl)ethyl]-9 H-purin-6-amine] | 0.3 µM |
| Nc1ncnc2c1nc(Sc1cc3c(cc1Br)OCO3)n2CCN1C(=O)CCCC1=O [Example 496, 1-(2-{6-Amino-8-[(6-bromo-1,3-benzodioxol-5-yl)thio]-9H-purin-9-yl}ethyl)piperidine-2,6-dione] | 0.081 µM |
| COc1ccc(OC)c(Sc2nc3c(N)ncnc3n2CCc2cccc(F)c2)c1 [Example 37, 8-(2,5-Dimethoxy-phenylsulfanyl)-9-[2-(3-fluoro-phenyl)-ethyl]-9H-purin-6-ylamine] | 0.8 µM |
| CC(C)(C)OC(=O)N1CC[C@H]1C(=O)N1CCC(CCn2c(Sc3cc4c(cc3Br)OCO4)nc3c(N)ncnc32)CC1 [Example 728, tert-Butyl(2S)-2-{[4-(2-{6-amino-8-[(6-bromo-1,3-benzodioxol-5-yl)thio]-9H-purin-9-yl}ethyl)piperidin-1-yl]carbonyl}azetidine-1-carboxylate] | 0.2 µM |
